Here are results for 25 molecules from ChEMBL document CHEMBL2331103, “Synthesis of a novel series of 2-alkylthio substituted naphthoquinones as potent acyl-CoA: cholesterol acyltransferase (ACAT) inhibitors” (Eur J Med Chem, 2013).

Broadly, the IC50 is the concentration needed to halve the response being measured. High values mean lower potency, low ones higher potency.

In this experiment the target is T1, Sterol O-acyltransferase 1 (Homo sapiens, UniProt P35610).
T1 sequence (P35610 whole entry): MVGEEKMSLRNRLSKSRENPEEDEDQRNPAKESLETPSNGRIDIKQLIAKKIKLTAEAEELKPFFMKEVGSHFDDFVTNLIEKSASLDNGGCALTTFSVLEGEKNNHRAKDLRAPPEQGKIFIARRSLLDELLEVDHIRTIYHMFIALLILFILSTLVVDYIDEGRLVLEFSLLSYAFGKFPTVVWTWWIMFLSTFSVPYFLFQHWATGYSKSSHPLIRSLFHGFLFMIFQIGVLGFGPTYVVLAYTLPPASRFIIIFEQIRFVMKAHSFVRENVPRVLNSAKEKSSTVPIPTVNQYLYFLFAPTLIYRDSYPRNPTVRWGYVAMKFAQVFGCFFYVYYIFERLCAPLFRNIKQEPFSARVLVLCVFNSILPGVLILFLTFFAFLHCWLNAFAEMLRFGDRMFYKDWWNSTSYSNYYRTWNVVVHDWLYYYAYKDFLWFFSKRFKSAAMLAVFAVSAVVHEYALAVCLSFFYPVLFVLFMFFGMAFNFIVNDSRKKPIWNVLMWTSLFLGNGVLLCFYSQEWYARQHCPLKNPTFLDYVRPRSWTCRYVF
The experiment is described as follows: Inhibition of human macrophage ACAT expressed in human HepG2 cells using [14C]oleoyl-CoA as substrate incubated for 20 mins prior to substrate addition measured after 25 mins by liquid scintillation counting analysis. It counts as cell-based.
For the molecule `CCCCCCCCCCCCCCCS(=O)(=O)C1=CC(=O)c2c(OC)ccc(OC)c2C1=O`, inhibition was half-maximal at 5.8 µM (IC50).

The molecule `CCCCCCCCCC[S+]([O-])C1=CC(=O)c2c(OC)ccc(OC)c2C1=O` (stereo not given) came in with a half-maximal inhibitory concentration (IC50) of 8.4 µM.

Regarding `CCCCCCCCCCCCSC1=CC(=O)c2ccccc2C1=O`, the IC50 is 1.66 µM.

The molecule `CCCCCCCCC[S+]([O-])C1=CC(=O)c2ccccc2C1=O` (stereo not given) had an IC50 of 5.47 µM.

Take `COc1ccc(OC)c2c1C(=O)C=C([S+](C)[O-])C2=O` (stereo not given): the IC50 is more than 100 µM.

`CCCSC1=CC(=O)c2ccccc2C1=O` came in with an IC50 of 5.08 µM.

On to `CCCCCCCCCCC[S+]([O-])C1=CC(=O)c2c(OC)ccc(OC)c2C1=O` (stereo not given), for which the IC50 is 1.1 µM.

`COc1ccc(OC)c2c1C(=O)C=C(S(C)(=O)=O)C2=O` showed an IC50 of more than 100 µM.

For `CCCCCCCCCCCS(=O)(=O)C1=CC(=O)c2c(OC)ccc(OC)c2C1=O`, the half-inhibitory concentration (IC50) was determined as 3.4 µM.

`CCCCCCCCSC1=CC(=O)c2ccccc2C1=O`: the IC50 was 6 µM.

For the molecule `CCCCCCCCCCCSC1=CC(=O)c2ccccc2C1=O`, inhibition was half-maximal at 8.67 µM (IC50).

With `C[S+]([O-])C1=CC(=O)c2ccccc2C1=O` (stereo not given), the IC50 turned out to be 5.66 µM.

Consider `CCCS(=O)(=O)C1=CC(=O)c2c(OC)ccc(OC)c2C1=O`, for which the IC50 was more than 100 µM.

In the case of `CCS(=O)(=O)C1=CC(=O)c2c(OC)ccc(OC)c2C1=O`, the IC50 was more than 100 µM.

`CCCCCCCCCCCCCCCCCCSC1=CC(=O)c2ccccc2C1=O` showed an IC50 of 1.45 µM.

Molecule `CCCCCCCCCCCC[S+]([O-])C1=CC(=O)c2c(OC)ccc(OC)c2C1=O` (stereo not given) yielded an IC50 of 2.4 µM.

The molecule `CCCCCCCCCCCCCCC[S+]([O-])C1=CC(=O)c2ccccc2C1=O` (stereo not given) had an IC50 of 56.6 µM.

`CCCCCSC1=CC(=O)c2ccccc2C1=O`: the IC50 came to 8.19 µM.

For the molecule `CC(C)CNC(=O)/C=C/C=C/CCCC/C=C/c1ccc2c(c1)OCO2` [RETROFRACTAMIDE B], half-maximal inhibition (IC50) was put at 3.7 µM.

Consider `CCCCCCCCCSC1=CC(=O)c2ccccc2C1=O`, for which half-maximal inhibition (IC50) required 1.63 µM.

In turn, `CSC1=CC(=O)c2ccccc2C1=O` displayed an IC50 of 2.82 µM.

`CCCCCCCCCCCCCCCCCC[S+]([O-])C1=CC(=O)c2c(OC)ccc(OC)c2C1=O` (stereo not given) yielded an IC50 of more than 100 µM.

`CCCCSC1=CC(=O)c2ccccc2C1=O` yielded an IC50 of 7.87 µM.

`CCCCCCCCCCCCCCCSC1=CC(=O)c2ccccc2C1=O` displayed an IC50 of 4.13 µM.

The molecule `CCSC1=CC(=O)c2ccccc2C1=O` returned an IC50 of 7.51 µM.
